Key:
Format in all cases: in vivo
[1] = test system: Alopecurus myosuroides (ALOMY); test: Example A pre-emergence herbicidal activity, glasshouse pot test; settings: 480 h, rate 500 g/ha, evaluated 20 days later, 100=total damage to plant, 0=no damage to plant
Method: (§1) Seeds of a variety of test species were sown in standard soil in pots. After cultivation for one day (pre-emergence) or after 10 days cultivation (post-emergence) under controlled conditions in a glasshouse, the plants were sprayed with an aqueous spray solution derived from the formulation of the technical active ingredient in 0.6 ml acetone and 45 ml formulation solution containing 10.6% Emulsogen EL (Registry number 61791-12-6), 42.2% N-methylpyrrolidone, 42.2% dipropylene glycol monomethyl ether (Registry number 34590-94-8) and 0.2% X-77 (Registry number 11097-66-8). The test plants were then grown in a greenhouse under optimum conditions until, 15 days later for post-emergence and 20 days for pre-emergence, the test was evaluated (100=total damage to plant; 0=no damage to plant). Alopecurus myosuroides (ALOMY), Avena fatua (AVEFA), Lolium perenne (LOLPE), Setaria faberi (SETFA), Digitaria sanguinalis (DIGSA), Echinochloa crus-galli (ECHCG) Pre-Emergence Activity

Avena fatua (AVEFA) [2] = test: as above; settings: 480 h, rate 500 g/ha, evaluated 20 days later, 100=total damage to plant, 0=no damage to plant
Method: as §1

[3] = test system: Digitaria sanguinalis (DIGSA); test: as above; settings: 480 h, rate 500 g/ha, evaluated 20 days later, 100=total damage to plant, 0=no damage to plant
Method: as §1

[4] = test system: Echinochloa crus-galli (ECHCG); test: as above; settings: 480 h, rate 500 g/ha, evaluated 20 days later, 100=total damage to plant, 0=no damage to plant
Method: as §1

Lolium perenne (LOLPE) [5] = test: as above; settings: 480 h, rate 500 g/ha, evaluated 20 days later, 100=total damage to plant, 0=no damage to plant
Method: as §1

Setaria faberi (SETFA) [6] = test: as above; settings: 480 h, rate 500 g/ha, evaluated 20 days later, 100=total damage to plant, 0=no damage to plant
Method: as §1

[7] = test system: Alopecurus myosuroides (ALOMY); test: Example A post-emergence herbicidal activity, glasshouse pot test; settings: 360 h, evaluated 15 days after spraying, read-out: herbicidal damage ALOMY (100=total damage to plant; 0=no damage to plant); for pest or weed control at 125 g/ha: rate 125 g/ha
Method: as §1, with “Post Emergency” for “Pre-Emergence”

Avena fatua (AVEFA) [8] = test: as above; settings: 360 h, evaluated 15 days after spraying, read-out: herbicidal damage AVEFA (100=total damage to plant; 0=no damage to plant); for pest or weed control at 125 g/ha: rate 125 g/ha
Method: as §1, with “Post Emergency” for “Pre-Emergence”

[9] = test system: Digitaria sanguinalis (DIGSA); test: as above; settings: 360 h, evaluated 15 days after spraying, read-out: herbicidal damage DIGSA (100=total damage to plant; 0=no damage to plant); for pest or weed control at 125 g/ha: rate 125 g/ha
Method: as §1, with “Post Emergency” for “Pre-Emergence”

[10] = test system: Echinochloa crus-galli (ECHCG); test: as above; settings: 360 h, evaluated 15 days after spraying, read-out: herbicidal damage ECHCG (100=total damage to plant; 0=no damage to plant); for pest or weed control at 125 g/ha: rate 125 g/ha
Method: as §1, with “Post Emergency” for “Pre-Emergence”

Lolium perenne (LOLPE) [11] = test: as above; settings: 360 h, evaluated 15 days after spraying, read-out: herbicidal damage LOLPE (100=total damage to plant; 0=no damage to plant); for pest or weed control at 125 g/ha: rate 125 g/ha
Method: as §1, with “Post Emergency” for “Pre-Emergence”

Setaria faberi (SETFA) [12] = test: as above; settings: 360 h, evaluated 15 days after spraying, read-out: herbicidal damage SETFA (100=total damage to plant; 0=no damage to plant); for pest or weed control at 125 g/ha: rate 125 g/ha
Method: as §1, with “Post Emergency” for “Pre-Emergence”

[13] = test system: Alopecurus myosuroides (ALOMY); test: Example B pre-emergence herbicidal activity, glasshouse pot test; settings: 312 h, rate 1000 g/ha, evaluated after 13 days, read-out: herbicidal damage ALOMY (100=total damage to plant; 0=no damage to plant)
Method: (§2) Seeds of a variety of test species were sown in standard soil in pots. After cultivation for one day (pre-emergence) or after 8 days cultivation (post-emergence) under controlled conditions in a glasshouse (at 24/16° C., day/night; 14 hours light; 65% humidity), the plants were sprayed with an aqueous spray solution derived from the formulation of the technical active ingredient in acetone/water (50:50) solution containing 0.5% Tween 20 (polyoxyethelyene sorbitan monolaurate, CAS RN 9005-64-5). The test plants were then grown in a glasshouse under controlled conditions in a glasshouse (at 24/16° C., day/night; 14 hours light; 65% humidity) and watered twice daily. After 13 days for pre and post-emergence, the test was evaluated (100=total damage to plant; 0=no damage to plant). Alopecurus myosuroides (ALOMY), Avena fatua (AVEFA), Setaria faberi (SETFA), Echinochloa crus-galli (ECHCG), Solanum nigrum (SOLNI) and Amaranthus retroflexus (AMARE) Pre-Emergence Activity

[14] = test system: Amaranthus retroflexus (AMARE); test: as above; settings: 312 h, rate 1000 g/ha, evaluated after 13 days, read-out: herbicidal damage AMARE (100=total damage to plant; 0=no damage to plant)
Method: as §2

Avena fatua (AVEFA) [15] = test: as above; settings: 312 h, rate 1000 g/ha, evaluated after 13 days, read-out: herbicidal damage AVEFA (100=total damage to plant; 0=no damage to plant)
Method: as §2

[16] = test system: Echinochloa crus-galli (ECHCG); test: as above; settings: 312 h, rate 1000 g/ha, evaluated after 13 days, read-out: herbicidal damage ECHCG (100=total damage to plant; 0=no damage to plant)
Method: as §2

Setaria faberi (SETFA) [17] = test: as above; settings: 312 h, rate 1000 g/ha, evaluated after 13 days, read-out: herbicidal damage SETFA (100=total damage to plant; 0=no damage to plant)
Method: as §2

Solanum nigrum (SOLNI) [18] = test: as above; settings: 312 h, rate 1000 g/ha, evaluated after 13 days, read-out: herbicidal damage SOLNI (100=total damage to plant; 0=no damage to plant)
Method: as §2

[19] = test system: Alopecurus myosuroides (ALOMY); test: Example B post-emergence herbicidal activity, glasshouse pot test; settings: 312 h, rate 1000 g/ha, evaluated after 13 days, read-out: herbicidal damage ALOMY (100=total damage to plant; 0=no damage to plant)
Method: as §2, with “Post-Emergence” for “Pre-Emergence”

[20] = test system: Amaranthus retroflexus (AMARE); test: as above; settings: 312 h, rate 1000 g/ha, evaluated after 13 days, read-out: herbicidal damage AMARE (100=total damage to plant; 0=no damage to plant)
Method: as §2, with “Post-Emergence” for “Pre-Emergence”

Avena fatua (AVEFA) [21] = test: as above; settings: 312 h, rate 1000 g/ha, evaluated after 13 days, read-out: herbicidal damage AVEFA (100=total damage to plant; 0=no damage to plant)
Method: as §2, with “Post-Emergence” for “Pre-Emergence”

[22] = test system: Echinochloa crus-galli (ECHCG); test: as above; settings: 312 h, rate 1000 g/ha, evaluated after 13 days, read-out: herbicidal damage ECHCG (100=total damage to plant; 0=no damage to plant)
Method: as §2, with “Post-Emergence” for “Pre-Emergence”

Setaria faberi (SETFA) [23] = test: as above; settings: 312 h, rate 1000 g/ha, evaluated after 13 days, read-out: herbicidal damage SETFA (100=total damage to plant; 0=no damage to plant)
Method: as §2, with “Post-Emergence” for “Pre-Emergence”

Solanum nigrum (SOLNI) [24] = test: as above; settings: 312 h, rate 1000 g/ha, evaluated after 13 days, read-out: herbicidal damage SOLNI (100=total damage to plant; 0=no damage to plant)
Method: as §2, with “Post-Emergence” for “Pre-Emergence”

Row | Compound | pest or weed control at 500 g/ha [1] | pest or weed control at 500 g/ha (Avena fatua (AVEFA) [2]) | pest or weed control at 500 g/ha [3] | pest or weed control at 500 g/ha [4] | pest or weed control at 500 g/ha (Lolium perenne (LOLPE) [5]) | pest or weed control at 500 g/ha (Setaria faberi (SETFA) [6]) | pest or weed control at 125 g/ha [7] | pest or weed control at 125 g/ha (Avena fatua (AVEFA) [8]) | pest or weed control at 125 g/ha [9] | pest or weed control at 125 g/ha [10] | pest or weed control at 125 g/ha (Lolium perenne (LOLPE) [11]) | pest or weed control at 125 g/ha (Setaria faberi (SETFA) [12]) | other results
1 | Cc1ccc(-c2ccc(Cl)cc2)cc1C1=C(O)CC(C(C)C2CCOCC2)CC1=O (stereo not drawn) [Compound A-15] | 10% | 40% | 20% | 10% | 0% | 20% |  |  |  |  |  |  | pest or weed control at 500 g/ha ([7]; rate 500 g/ha): 60%; pest or weed control at 500 g/ha (Avena fatua (AVEFA) [8]; rate 500 g/ha): 30%; pest or weed control at 500 g/ha ([9]; rate 500 g/ha): 70%; pest or weed control at 500 g/ha ([10]; rate 500 g/ha): 50%; pest or weed control at 500 g/ha (Lolium perenne (LOLPE) [11]; rate 500 g/ha): 30%; pest or weed control at 500 g/ha (Setaria faberi (SETFA) [12]; rate 500 g/ha): 30%
2 | CCc1cc(C)cc(CC)c1C1=C(O)CC(CC2CCS(=O)(=O)CC2)CC1=O (stereo not drawn) [Compound A-17] | 100% | 100% | 100% | 100% | 100% | 100% | 90% | 100% | 80% | 100% | 90% | 50% | 
3 | CCc1cc(C)cc(CC)c1C1=C(O)CC(C(C)C2CCOC2)CC1=O (stereo not drawn) [Compound A-18] | 90% | 100% | 100% | 100% | 100% | 100% | 100% | 90% | 80% | 100% | 100% | 50% | 
4 | CCc1cc(CC)c(C2=C(O)CC(CC3CCOCC3)CC2=O)c(CC)c1 (stereo not drawn) [Compound A-19] | 100% | 60% | 100% | 100% | 100% | 100% | 70% | 20% | 60% | 70% | 70% | 60% | 
5 | CCc1ccc(-c2ccc(Cl)cc2)cc1C1=C(O)CC(CC2CCOCC2)CC1=O (stereo not drawn) [Compound A-20] | 50% | 10% | 40% | 100% | 40% | 70% | 40% | 60% | 100% | 100% | 40% | 80% | 
6 | CCc1ccccc1C1=C(O)CC(CC2CCOCC2)CC1=O (stereo not drawn) [Compound A-31] | 60% | 50% | 100% | 70% | 40% | 100% | 60% | 60% | 30% | 50% | 60% | 40% | pest or weed control at 1000 g/ha [13]: 100%; pest or weed control at 1000 g/ha [14]: 0%; pest or weed control at 1000 g/ha (Avena fatua (AVEFA) [15]): 40%; pest or weed control at 1000 g/ha [16]: 100%; pest or weed control at 1000 g/ha (Setaria faberi (SETFA) [17]): 100%; pest or weed control at 1000 g/ha (Solanum nigrum (SOLNI) [18]): 0%; pest or weed control at 1000 g/ha [19]: 100%; pest or weed control at 1000 g/ha [20]: 0%; pest or weed control at 1000 g/ha (Avena fatua (AVEFA) [21]): 90%; pest or weed control at 1000 g/ha [22]: 100%; pest or weed control at 1000 g/ha (Setaria faberi (SETFA) [23]): 100%; pest or weed control at 1000 g/ha (Solanum nigrum (SOLNI) [24]): 0%
